The test system of one data set is HBV. As to the kind of experiment: HBV-DNA antiviral assay using HepG2.117 cells (intracellular HBV DNA by qPCR). Format: cell-based, genotype D HBV. The settings on record: Hepatitis B virus, 72 h, HBV DNA inhibition, 3 days incubation. As to the method:
(§1) The following assay procedure describes the HBV antiviral assay, using HepG2.117 cells, which carry a stably integrated genotype D HBV genome under the control of a Tet-off promoter, and intracellular HBV DNA quantification as endpoint. Cell viability is assessed in parallel by measuring the intracellular ATP content using CellTiter-Glo 2.0 (Promega).
(§2) On day 0, HepG2.117 cells (which are maintained in routine cell culture with doxycycline present in the medium at a final concentration of 1 μg/mL) are seeded in 96-well plates (white with clear bottom) at a density of 2.0×10^4 cells/well (0.1 mL/well) in medium without doxycycline to induce pgRNA transcription and subsequent formation of HBV particles. The cells are incubated at 37° C. and 5% CO2.
(§3) On day 1, medium is removed from each well, the test articles are diluted in culture medium without doxcycyline and 100 μL was added to cell culture wells (9 concentrations, 4-fold dilution). For each plate, 6 untreated (merely DMSO) wells are included. The final concentration of DMSO in the culture medium is 2%. Each plate is prepared in duplicate (one for HBV DNA extraction, one for CellTiter-Glo 2.0 measurement). The cells are incubated at 37° C. and 5% CO2 for 3 days.
(§4) On day 4, cell viability is assessed using CellTiter-Glo 2.0 and cell lysates are prepared for HBV DNA extraction and subsequent quantification by qPCR.
Medium is removed from each well and 100 μL of 0.33% NP-40 in H2O was added to each well. Plates are sealed, incubated at 4° C. for 5 mins, vortexed extensively and centrifuged briefly. Next, 35 μL of lysate is added to 65 μL QuickExtract DNA Extraction Solution (Epicentre) in a PCR plate for each well. PCR plate is incubated at 65° C. for 6 mins, 98° C. for 2 mins and finally cooled to 4° C. HBV DNA is then quantified by qPCR with HBV-specific primers and probes as specified in Table 2 using the Bio-Rad SSOAdvanced Universal Probes Supermix on a CFX96 machine (Bio-Rad). The PCR cycle program consisted of 95° C. for 3 mins, followed by 40 cycles at 95° C. for 10 sec and 60° C. for 30 sec.
A DNA standard is prepared by dilution of an IDT gBlock corresponding to the amplicon with concentrations ranging from 10^2 to 10^8 copies/input (i.e., per 4 μL) and used to generate a standard curve by plotting Cq values vs. HBV DNA standard concentration. The quantity of HBV DNA in each sample is determined by interpolating from the standard curve.
(§5) Cell viability is calculated as follows: % Cell viability=(luminescence value of test sample)/(average luminescence value of 2% DMSO control)×100%. HBV DNA inhibition was calculated as follows: 100−(HBV DNA copy number of test sample)/(average HBV DNA copy number of 2% DMSO control)×100%. No normalization to entecavir is required due to the excellent dynamic window of this assay. The CC50, EC50 and EC90 values were determined by dose-response curves fitted using non-linear regression.

The nature of data set [1]: Cell viability by CellTiter-Glo 2.0 (intracellular ATP) in HepG2.117 cells. In kind it is cell-based. Conditions: human, CellTiter-Glo 2.0, 3 days incubation. As for the experimental part: as §1, §2, §3, §4
Using the other plates, the cell viability is quantified by CellTiter-Glo 2.0 according to the manufacturer's manual. In brief, 100 μL of reagent solution is added to the culture plates and shaken for 2′. The plates are incubated at rt for 10 min and luminescence signal is subsequently measured on a VarioSkan Lux (ThermoFisher) plate reader.
as §5
A general note: In ATP-based viability assays light output follows the ATP content of the culture.

A word on the EC50: it is the concentration at which the effect is half-maximal. The term CC50 denotes the concentration at which the toxic effect on the cells reaches its halfway point. As for `CNC(=O)c1ccc(-n2c(-n3nc(C#N)cc3C)nc3c(c2=O)C[C@@H](C)N(C(=O)c2ccc(Br)c(C(F)(F)F)c2)C3)cc1` [Compound 1, (R)-4-(7-(4-bromo-3-(trifluoromethyl)benzoyl)-2-(3-cyano-5-methyl-1H-pyrazol-1-yl)-6-methyl-4-oxo-5,6,7,8-tetrahydropyrido[3,4-d]pyrimidin-3(4H)-yl)-N-methylbenzamide], the EC50 in the data set on HBV is at most 50 nM. Also, the CC50 at 3 days in data set [1] is above 50 µM.

Compound `CNC(=O)c1ccc(-n2c(-n3nc(C)cc3C#N)nc3c(c2=O)C[C@@H](C)N(C(=O)c2ccc(Br)c(C(F)(F)F)c2)C3)cc1` [Compound 2, (R)-4-(7-(4-bromo-3-(trifluoromethyl)benzoyl)-2-(5-cyano-3-methyl-1H-pyrazol-1-yl)-6-methyl-4-oxo-5,6,7,8-tetrahydropyrido[3,4-d]pyrimidin-3(4H)-yl)-N-methylbenzamide] registered a concentration giving a half-maximal response (EC50) with HBV of at most 50 nM. Further, half-maximal cytotoxicity in data set [1] (CC50 at 3 days) was put at 29.2 µM.

In the data set on HBV, `CNC(=O)c1ccc(-n2c(-n3nc(C4CC4)cc3C)nc3c(c2=O)C[C@@H](C)N(C(=O)c2ccc(Br)c(C(F)(F)F)c2)C3)cc1` [Compound 3, (R)-4-(7-(4-bromo-3-(trifluoromethyl)benzoyl)-2-(3-cyclopropyl-5-methyl-1H-pyrazol-1-yl)-6-methyl-4-oxo-5,6,7,8-tetrahydropyrido[3,4-d]pyrimidin-3(4H)-yl)-N-methylbenzamide] had an EC50 of at most 50 nM. The compound further yielded a CC50 at 3 days in data set [1] above 50 µM.

The compound `CCc1cc(CC)n(-c2nc3c(c(=O)n2-c2ccc(C(=O)NC)cc2)C[C@@H](C)N(C(=O)c2ccc(Br)c(C(F)(F)F)c2)C3)n1` [Compound 4] returned a half-maximal effective concentration (EC50) in the data set with HBV of at most 50 nM. The 50% cytotoxic concentration (CC50) at 3 days in data set [1] is above 50 µM.

Regarding `CNC(=O)c1ccc(-n2c(-n3nc(C(F)(F)F)cc3C)nc3c(c2=O)C[C@@H](C)N(C(=O)c2ccc(Br)c(C(F)(F)F)c2)C3)cc1` [Compound 5], in the data set on HBV, the EC50 is at most 50 nM. In addition, the CC50 at 3 days in data set [1] is above 0.5 µM.

`CNC(=O)c1ccc(-n2c(-n3nc(C(C)(C)C)cc3C)nc3c(c2=O)C[C@@H](C)N(C(=O)c2ccc(Br)c(C(F)(F)F)c2)C3)cc1` [Compound 6] gave a half-maximal effective concentration (EC50) in the data set on HBV of at most 50 nM. In data set [1], this compound came in with a CC50 at 3 days of 41.8 µM.

Consider `CNC(=O)c1ccc(-n2c(-n3nc(C(C)C)cc3C)nc3c(c2=O)C[C@@H](C)N(C(=O)c2ccc(Br)c(C(F)(F)F)c2)C3)cc1` [Compound 7], for which, in the data set on HBV, the EC50 is at most 50 nM. In data set [1], this compound gave a cytotoxic concentration (CC50) at 3 days above 50 µM.

`CNC(=O)c1ccc(-n2c(-n3nc(C)cc3C(C)C)nc3c(c2=O)C[C@@H](C)N(C(=O)c2ccc(Br)c(C(F)(F)F)c2)C3)cc1` [Compound 8] registered an EC50 in the data set with HBV of at most 50 nM. For the same compound, the CC50 at 3 days in data set [1] was above 50 µM.

`CNC(=O)c1ccc(-n2c(-n3nc(C)c(C)c3C)nc3c(c2=O)C[C@@H](C)N(C(=O)c2ccc(Br)c(C(F)(F)F)c2)C3)cc1` [Compound 9] displayed an EC50 in the data set with HBV of 50 to 500 nM. Moreover, the CC50 at 3 days in data set [1] is above 5 µM.

`CNC(=O)c1ccc(-n2c(-n3cc4c(n3)CCCC4)nc3c(c2=O)C[C@@H](C)N(C(=O)c2ccc(Br)c(C(F)(F)F)c2)C3)cc1` [Compound 10] had a concentration for a half-maximal effect (EC50) in the data set with HBV of at most 50 nM. The CC50 at 3 days in data set [1] is above 50 µM.

`CNC(=O)c1ccc(-n2c(-n3nc(C(=O)N(C)C)cc3C)nc3c(c2=O)C[C@@H](C)N(C(=O)c2ccc(Br)c(C(F)(F)F)c2)C3)cc1` [Compound 11]: the 50% effective concentration (EC50) in the data set with HBV was 50 to 500 nM. Further, the 50% cytotoxic concentration (CC50) at 3 days in data set [1] was above 50 µM.

`[2H]c1c(C)nn(-c2nc3c(c(=O)n2-c2ccc(C(=O)NC)cc2)C[C@@H](C)N(C(=O)c2ccc(Br)c(C(F)(F)F)c2)C3)c1C` [Compound 12]: in the data set on HBV, the EC50 is at most 50 nM. The compound also registered a cytotoxic concentration (CC50) at 3 days in data set [1] above 50 µM.

For the origin of these results see patent publication US12384779B2, “Bicyclic compounds” (Aligos Therapeutics, Inc., priority 2022, dated 2025).
